Assay results taken from the supplement of paper PMC10307832.

Tests used:
Test in all cases: relative viability (nuclei count vs DMSO), 5 days (fraction); higher = more cells survive
TGX 221 + Decitabine = compound: CC1=CN2C(=O)C=C(N=C2C(=C1)C(C)NC3=CC=CC=C3)N4CCOCC4 [TGX 221] + Nc1ncn([C@H]2C[C@H](O)[C@@H](CO)O2)c(=O)n1 [Decitabine] (partner 2 µM)
Summary of the method: (§1)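 A single step with final 0.05% Triton X-100, 1% formaldehyde and 1 ug/ml Hoechst fixed the cells and stained nuclei 5 days after treatment. Lung cancer cell lines in 1536-well plates had been treated by pin tool the day after seeding with one drug alone or a fixed anchor-drug dose plus five library-drug doses (not always all listed) in √10 steps, and nuclei were counted on 4× images. Relative viability is the ratio of nuclei in treated wells to nuclei in vehicle wells, taken as the median of duplicate plates.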

[1] = compound: O=C(CCCCCCNC(=O)c1cnc(N(c2ccccc2)c2ccccc2)nc1)NO [Ricolinostat] + N=C(N)NC(=N)NCCc1ccccc1 [Phenformin] (partner 250 µM)
Summary of the method: as §1

[2] = compound: C1=CC=C(C(=C1)C2=CC=C(C=C2)C3=CSC4=C3C(=C(C(=O)N4)C#N)O)O + Cc1nc(NC(=O)N2CCC[C@H]2C(N)=O)sc1-c1ccnc(C(C)(C)C(F)(F)F)c1 [Alpelisib] (partner 2 µM)
Summary of the method: as §1

[3] = compound: O=C(CCCCCCNC(=O)c1cnc(N(c2ccccc2)c2ccccc2)nc1)NO [Ricolinostat] + CS(=O)(=O)N1CCN(Cc2cc3nc(-c4cccc5[nH]ncc45)nc(N4CCOCC4)c3s2)CC1 [Pictilisib] (partner 1 µM)
Summary of the method: as §1

Cell Line | relative viability (TGX 221 + Decitabine; first compound 0.08 µM) | relative viability (TGX 221 + Decitabine; first compound 0.253 µM) | relative viability (TGX 221 + Decitabine; first compound 0.8 µM) | relative viability (TGX 221 + Decitabine; first compound 2.53 µM) | relative viability (TGX 221 + Decitabine; first compound 8 µM) | relative viability ([1]; first compound 0.253 µM) | relative viability ([1]; first compound 0.8 µM) | relative viability ([1]; first compound 2.53 µM) | relative viability ([2]; first compound 0.08 µM) | relative viability ([2]; first compound 0.253 µM) | relative viability ([2]; first compound 0.8 µM) | relative viability ([2]; first compound 2.53 µM) | relative viability ([2]; first compound 8 µM) | relative viability ([3]; first compound 0.253 µM) | relative viability ([3]; first compound 0.8 µM) | relative viability ([3]; first compound 2.53 µM) | relative viability ([1]; first compound 0.08 µM) | relative viability ([3]; first compound 0.08 µM)
NCI-H322M | 0.628 | 0.683 | 0.693 | 0.62 | 0.678 | 0.839 | 0.767 | 0.761 | 0.814 | 0.901 | 0.958 | 0.835 | 0.703 | 0.558 | 0.561 | 0.568 | – | –
LK-2 | 0.341 | 0.308 | 0.25 | 0.296 | 0.307 | 0.547 | 0.499 | 0.449 | – | – | 0.906 | 1 | 1.06 | 0.497 | 0.48 | 0.483 | 0.415 | –
LXF-289 | 0.37 | 0.371 | 0.369 | 0.348 | 0.375 | 0.463 | 0.538 | 0.529 | 1.02 | 0.969 | 1.06 | 1.05 | 0.965 | 0.809 | 0.804 | 0.554 | 0.495 | 0.702
PC-3 [JPC-3] | 0.749 | 0.802 | 0.826 | 0.815 | 0.898 | 0.472 | 0.488 | 0.475 | 1.17 | 1.05 | 1.06 | 1.12 | 1.01 | 0.808 | 0.673 | 0.456 | – | 0.669
BEN | 0.679 | 0.669 | 0.667 | 0.715 | 0.715 | 0.283 | 0.228 | 0.225 | 0.828 | 1.11 | 0.918 | 1.27 | 0.756 | 0.532 | 0.425 | 0.354 | 0.321 | 0.462
NCI-H1355 | 0.35 | 0.349 | 0.355 | 0.325 | 0.309 | 0.451 | 0.427 | 0.439 | 0.927 | 1 | 0.899 | 0.829 | 0.663 | 0.418 | 0.419 | 0.316 | 0.412 | –
NCI-H441 | 0.226 | 0.239 | 0.24 | 0.285 | 0.287 | 0.956 | 0.889 | 0.643 | – | 0.773 | – | 0.75 | 0.816 | 0.55 | 0.426 | 0.453 | – | 0.42
EKVX | 0.346 | 0.313 | 0.345 | 0.367 | 0.307 | 0.251 | – | 0.222 | 0.786 | 0.995 | 0.838 | 0.953 | 0.851 | 0.444 | 0.456 | 0.378 | 0.201 | –
NCI-H358 | 0.22 | 0.216 | 0.209 | 0.181 | 0.203 | 0.362 | 0.424 | 0.432 | 0.708 | 0.862 | 0.788 | 0.973 | 0.763 | 0.495 | 0.463 | 0.539 | 0.265 | 0.213
HCC-44 | 0.921 | 0.957 | 1.03 | 1.04 | 1.02 | 0.265 | 0.169 | 0.166 | 0.661 | 0.796 | 0.767 | 0.86 | 0.663 | 0.673 | 0.635 | 0.424 | 0.186 | 0.551
A-427 | 0.548 | 0.55 | 0.558 | 0.594 | 0.519 | 0.303 | 0.298 | 0.337 | 1.08 | 1.13 | 1.13 | 1.11 | 1.12 | 0.722 | 0.781 | 0.757 | – | 0.626
NCI-H23 | 0.35 | 0.329 | 0.271 | 0.33 | 0.322 | 0.749 | 0.8 | 0.706 | 0.652 | 0.695 | 0.833 | 0.719 | 0.421 | 0.572 | 0.475 | 0.309 | 0.72 | 0.381
NCI-H596 | 0.987 | 1.16 | 1.14 | 1.08 | 0.963 | 0.749 | 0.7 | 0.694 | 0.397 | 0.541 | 0.489 | 0.497 | 0.447 | 0.399 | 0.378 | 0.335 | 0.836 | 0.399
NCI-H2087 | 0.231 | 0.261 | 0.235 | 0.252 | 0.304 | 0.441 | 0.405 | 0.239 | 1.07 | 1.27 | 1.16 | 1.11 | 1.13 | 0.828 | 0.867 | 0.87 | – | 0.806
HCC-78 | 0.589 | 0.736 | 0.699 | 0.693 | 0.68 | 0.761 | 0.596 | 0.428 | 0.286 | 0.485 | 0.296 | 0.29 | 0.349 | 0.196 | 0.163 | 0.184 | – | –
NCI-H520 | 0.449 | 0.428 | 0.306 | 0.341 | 0.335 | 0.732 | 0.578 | 0.498 | 0.602 | 0.767 | 1.03 | 0.87 | 0.861 | 0.218 | 0.272 | 0.23 | – | –
NCI-H727 | 0.826 | 0.822 | 0.796 | 0.864 | 0.915 | 0.734 | 0.529 | 0.572 | 0.59 | 0.642 | 0.539 | 0.688 | 0.655 | 0.409 | 0.623 | 0.291 | 0.342 | 0.305
NCI-H1734 | 0.508 | 0.527 | 0.492 | 0.518 | 0.431 | 0.452 | 0.351 | 0.466 | 0.658 | 0.675 | 0.697 | 0.724 | 0.542 | 0.467 | 0.495 | 0.402 | 0.35 | 0.371
NCI-H1993 | 0.593 | 0.693 | 0.663 | 0.598 | 0.547 | 0.48 | 0.508 | 0.339 | 0.684 | 0.624 | 0.69 | 0.594 | 0.655 | 0.889 | 0.882 | 0.239 | – | 0.645
HCC-827 | 0.292 | 0.359 | 0.281 | 0.305 | 0.327 | 0.4 | 0.396 | 0.435 | 1.09 | 1.01 | 0.993 | 1.06 | 1.06 | 0.965 | 0.948 | 1.09 | 0.345 | 0.956
NCI-H1437 | 0.574 | 0.56 | 0.619 | 0.545 | 0.574 | 0.561 | 0.292 | 0.23 | 0.713 | 1.16 | 0.994 | 1.09 | 0.883 | 0.414 | 0.36 | 0.223 | 0.23 | 0.38
EPLC-272H | 0.352 | 0.349 | 0.316 | 0.343 | 0.332 | 0.273 | 0.26 | 0.144 | – | 1.06 | 0.978 | 0.977 | 0.76 | 0.343 | 0.285 | 0.355 | 0.263 | –
NCI-H2126 | 0.568 | 0.567 | 0.633 | 0.55 | 0.554 | 0.533 | 0.521 | 0.499 | 0.784 | 0.809 | 0.748 | 0.77 | 0.731 | 0.497 | 0.459 | 0.383 | – | 0.393
NCI-H1666 | 0.649 | 0.738 | 0.76 | 0.709 | 0.664 | 0.572 | 0.547 | 0.521 | 0.792 | 1.18 | 0.861 | 1.14 | 0.987 | 0.52 | 0.378 | 0.305 | 0.481 | 0.445
RERF-LC-KJ | 0.632 | 0.75 | 0.762 | 0.692 | 0.678 | 0.372 | 0.406 | 0.374 | 0.769 | 0.935 | 0.961 | 0.782 | 0.69 | 0.637 | 0.422 | 0.467 | 0.452 | 0.755
A549 | 0.337 | 0.25 | 0.294 | 0.26 | 0.349 | 0.114 | 0.132 | 0.155 | 0.733 | 1.14 | 0.908 | 0.707 | 0.604 | 0.517 | 0.471 | 0.312 | – | 0.405
ABC-1 | 1.06 | 1.26 | 1 | 1.07 | 0.923 | 0.24 | 0.253 | 0.274 | 1.09 | 1.08 | 1.08 | 0.878 | 1.01 | 0.731 | 0.606 | 0.446 | 0.27 | 0.541
